{
  "source": "patent US11382985B2",
  "about": "“Anti-tumour immune responses to modified self-epitopes” (Scancell Limited, priority 2015, dated 2022)",
  "key": {"[1]": {"test_system": "B16iDR4", "test": "B16 tumour with IFNγ inducible DR4 (B16iDR4) challenge", "type": "in vivo, DR4 mice", "experimental": "(§1) C57BL/6 mice (Charles River, UK), HLA-DR4 mice (Taconic, USA), HHDII/DR1 mice (Pasteur institute, France) and the HHD/HLA-DP4 transgenic strain of mouse as described in patent WO2013/017545 A1 (EMMA repository, France) were used, aged between 8 and 12 weeks, and cared for by the staff at Nottingham Trent University. All work was carried out under a Home Office project licence. Peptides were dissolved in PBS to 1 mg/ml and then emulsified (a series of dilutions) with different adjuvants: CpG and MPLA 6 μg/mouse of each (Invivogen, UK), Incomplete Freund's 50 μl/mouse (Sigma, UK), poly I:C 10 μg/mouse (Invivogen, UK), Imiquimod 25 μg/mouse (Invivogen, UK) and GMCSF 10 μg/mouse (Peprotech, UK). Peptides (25 μg/mouse) were injected subcutaneously at the base of the tail. DNA (1 μg/mouse) was coated onto 1.0 μm gold particles (BioRad, Hemel Hempstead, UK) using the manufacturer's instructions and administered intradermally by genegun (BioRad). Homspera (10 nM/mouse) (PeptideSynthetics, UK) was injected intradermally with genegun immunisation. Mice were immunized at either day 0 for peptide immunisation or days, 0 and 7 for genegun immunisation, unless otherwise stated. Spleens were removed for analysis at day 14 for peptide and day 20 for peptide or genegun immunisation unless stated otherwise.\nFor tumour challenge experiments mice were challenged with 2.5×10^4 B16 DR4 cells or 1×10^6 LLC2/LLC2 DR4 cells, 2.5×10^5 Pan02 DR4 cells in matrigel or […] above. Tumour growth was monitored at 3-4 days intervals and mice were humanely euthanized once tumour reached ≥10 mm in diameter."}, "[2]": {"test_system": "LLCDR4 tumour", "test": "Lewis lung carcinoma LLC2 with constitutive DR4 (LLCDR4) challenge", "type": "in vivo, DR4 mice", "conditions": "challenge four days before peptide immunisation; all controls died by day 48", "experimental": "as §1, with “Mice were immunized at either day 0 for peptide immunisation or days, 0 and 7 for genegun immunisation, unless otherwise stated. Spleens were removed for analysis at day 14 for peptide and day 20 for peptide or genegun immunisation unless stated otherwise.” left out\nFor tumour challenge experiments mice were challenged with 2.5×10^4 B16 DR4 cells or 1×10^6 LLC2/LLC2 DR4 cells, […] above. Tumour growth was monitored at 3-4 days intervals and mice were humanely euthanized once tumour reached ≥10 mm in diameter."}, "[3]": {"test_system": "splenocytes", "test": "Peptide immunisation and ex vivo Elispot, DR4 mice", "type": "in vivo, HLA-DR4 transgenic mouse", "experimental": "as §1\nElispot assays were performed using murine IFNγ, IL-17 and IL-10 capture and detection reagents according to the manufacturer's instructions (Mabtech, Sweden). In brief, anti-IFNγ, IL-17 and IL-10 antibodies were coated onto wells of 96-well Immobilin-P plate. Synthetic peptides (at a variety of concentrations) and 5×10^5 per well splenocytes were added to the wells of the plate in triplicate. Tumour target cells were added where relevant at 5×10^4/well in triplicate and plates incubated for 40 hrs at 37° C. After incubation, captured IFN and IL-10 were detected by biotinylated anti-IFNγ and IL-10 antibodies and developed with a streptavidin alkaline phosphatase and chromogenic substrate. Spots were analysed and counted using an automated plate reader (Cellular Technologies Ltd)."}, "[4]": {"test_system": "splenocytes", "test": "Peptide immunisation and ex vivo Elispot, DP4 mice", "type": "in vivo, HHD/HLA-DP4 transgenic mouse", "conditions": "DP4 mice immunised with human 241-260cit"}, "[5]": {"test_system": "PBMCs", "test": "Thymidine proliferation assay on healthy donor PBMCs", "type": "cell-based, human", "conditions": "for healthy donors showing a proliferative response: PBMCs from 6 healthy donors, peptide 10 μg/ml, days 4, 7, 11", "experimental": "PBMC were isolated from freshly drawn heparinised blood by Ficol-Hypaque (Sigma) gradient centrifugation. PBMC (1.5×10^6 cells/well) were stimulated with single peptides (final concentration 10 μg/ml) in RPMI containing 5% pooled autologous human serum, 2 mM glutamine, 20 mM HEPES and Penicillin-streptomycin (1%) in a final volume of 2 ml. Stimulation with purified protein derivative, PPD (final concentration 10 μg/ml) served as a positive control for the proliferative capacity of PBMC. As a negative control PBMC were incubated with medium alone. The PBMC were cultured at 37° C. in an atmosphere of 5% CO2 for 4, 7 and 11 days. To assess proliferation at these times points 100 μl in triplicate from each culture was aliquoted into a round bottom well of a 96 well plate and 3H-thymidine added (0.0185 MBq/well) and incubated at 37° C. for a further 8 hours. The cultures were harvested onto unifilter plates and incorporation of ^3H-thymidine was determined by β-scintillation counting. The results were assessed by calculating the stimulation index (SI) as the ratio of the mean of counts per minute (cpm) of epitope-stimulated to the mean of unstimulated cultures. The proliferative assay was considered positive when SI >2.5."}, "[6]": {"test_system": "PBMCs", "test": "PBMC culture and IFNγ Elispot", "type": "cell-based, human", "conditions": "donors 1 and 4, PBMCs cultured 13 days; label = restimulating peptide", "experimental": "PBMC were isolated from freshly drawn heparinised blood by Ficol-Hypaque (Sigma) gradient centrifugation. PBMC (1.5×10^6 cells/well) were stimulated with single peptides (final concentration 10 μg/ml) in RPMI containing 5% pooled autologous human serum, 2 mM glutamine, 20 mM HEPES, Penicillin-streptomycin (1%), 10 ng/ml recombinant human IL-15 and 5 ng/ml recombinant human IL-7 in a final volume of 2 ml. Recombinant human IL-2 was added on day 3 at 20 IU/ml. On day 13 cells were washed and added to human IFN elispot assay. Elispot assays were performed using human IFNγ capture and detection reagents according to the manufacturer's instructions (Mabtech, Sweden). In brief, anti-IFNγ antibody was coated onto wells of 96-well Immobilin-P plate. Synthetic peptides (at 10 μg/ml) and 1×10^5 per well PBMCs were added to the wells of the plate in quadruplicate and plates incubated for 20 hrs at 37° C. After incubation, captured IFNγ was detected by biotinylated anti-IFN antibody and developed with a streptavidin alkaline phosphatase and chromogenic substrate. Spots were analysed and counted using an automated plate reader (Cellular Technologies Ltd)."}, "[7]": {"conditions": "DR4 mice immunised with human 241cit"}, "[8]": {"conditions": "DR4 mice, single immunisation 25 μg human 241cit + CpG/MPLA"}},
  "note": "Square brackets hold non-standard residues; d marks the D form. Ends that are not written are not given here. Cit = NC(=O)NCCC[C@H](N)C(=O)O",
  "data": [
    {"substance": "VIGMDVAASEFF-CIT-SGKYDLD (VIGMDVAASEFF[Cit]SGKYDLD; listed as Homo sapiens) [Enolase 241cit]", "values": [
      {"measurement": "survival at day 42", "setting": "[1]; challenge 4 days prior to peptide immunisation, control 0%", "result": 90, "unit": "%"},
      {"measurement": "tumour volume, median, day 17 post tumour implant", "setting": "[1]; challenge 4 days prior to peptide immunisation, control median 65 mm^3", "result": 0, "unit": "mm^3"},
      {"measurement": "survival 39 days after rechallenge", "setting": "[1]; immunised survivors rechallenged with B16iDR4 at day 42, all controls dead by day 29", "result": 67, "unit": "%"},
      {"measurement": "mice surviving to day 58", "setting": "[2]", "result": 40, "unit": "%"},
      {"measurement": "IFN response with GM-CSF", "setting": "[3]; 1 or 3 doses with 25 μg of peptide", "result": "Detectable responses"},
      {"measurement": "IFNγ response in CD4 depleted fraction", "setting": "[3]; [7]", "result": "not"},
      {"measurement": "IFNγ response in CD4 enriched fraction", "setting": "[3]; [7]", "result": "present"},
      {"measurement": "IFNγ response in presence of CD4 blocking antibody (GK1.5)", "setting": "[3]; [7]", "result": "significantly reduced"},
      {"measurement": "IL-10 production in response to peptide stimulation", "setting": "[3]; DR4 mice immunised with human 241cit, ex vivo IL-10 ELISpot", "result": "No significant increase in IL-10 production"},
      {"measurement": "IFNγ response in presence of human MHC class II blocking antibody (L243)", "setting": "[3]; DR4 mice immunised with human 241cit, label = restimulating peptide", "result": "significantly reduced"},
      {"measurement": "IFNγ response with adjuvant CpG/MPLA", "setting": "[3]; DR4 mice, single dose", "result": "detected"},
      {"measurement": "IFNγ response with adjuvant IFA", "setting": "[3]; DR4 mice, single dose", "result": "no IFNγ response"},
      {"measurement": "IL-10 response with adjuvant CpG/MPLA", "setting": "[3]; DR4 mice, single dose", "result": "not"},
      {"measurement": "IL-10 response with adjuvant IFA", "setting": "[3]; DR4 mice, single dose", "result": "detected"},
      {"measurement": "IFNγ responses after 6 and 14 days compared to after 2 days", "setting": "[3]; DR4 mice, single dose in CpG/MPLA", "result": "significantly increased"},
      {"measurement": "time after immunisation at which IFNγ response is detectable", "setting": "[3]; DR4 mice, single dose in CpG/MPLA, sacrificed after 2, 6 or 14 days", "result": 6, "unit": "days"},
      {"measurement": "IFNγ response to human citrullinated sequence compared to media", "setting": "[3]; [8]", "result": "significant IFNγ response"},
      {"measurement": "IFNγ response to mouse citrullinated sequence compared to media", "setting": "[3]; [8]", "result": "significant IFNγ response"},
      {"measurement": "immune response to human or mouse wild type (wt) sequence", "setting": "[3]; [8]", "result": "neither"},
      {"measurement": "IFNγ response in combination with poly I:C", "setting": "[3]; DR4 transgenic mice", "result": "induces IFNγ responses"},
      {"measurement": "IL-10 response in combination with poly I:C", "setting": "[3]; DR4 transgenic mice", "result": "no IL-10"},
      {"measurement": "response in the absence of adjuvant", "setting": "[3]; peptide immunisation without adjuvant", "result": "no response"},
      {"measurement": "granzyme B release in response to the cit peptide", "setting": "[4]", "result": "show granzyme B release"},
      {"measurement": "proliferation index, mean", "setting": "[5]; Donor 1, day 4", "result": 0.8},
      {"measurement": "proliferation index, mean", "setting": "[5]; Donor 1, day 7", "result": 28.6},
      {"measurement": "proliferation index, mean", "setting": "[5]; Donor 1, day 11", "result": 20.4},
      {"measurement": "proliferation index, mean", "setting": "[5]; Donor 2, day 11", "result": 2.7},
      {"measurement": "proliferation index, mean", "setting": "[5]; Donor 4, day 4", "result": 12.5},
      {"measurement": "proliferation index, mean", "setting": "[5]; Donor 4, day 7", "result": 28},
      {"measurement": "proliferation index", "setting": "[5]; Donor 4, day 11", "result": 4.4},
      {"measurement": "proliferative response", "setting": "[5]; Donor 6", "result": "non-responder"},
      {"measurement": "healthy donors showing a proliferative response", "setting": "[5]", "result": "5/6"},
      {"measurement": "healthy donors showing a proliferative response", "setting": "[5]; listed as Enolase 241-260 citrullinated at position 253", "result": "4/6"},
      {"measurement": "IFNγ response on restimulation", "setting": "[6]", "result": "show responses"}
    ]}
  ]
}
